Earlier results, collected in patent publication US8680078B2, “Stable ophthalmic formulations” (Medivis SRL, priority 2008, dated 2014).
Read-outs that look alike come from different tables or passages of the source.

What was measured:
[1] = pH of 5.6

| maximum solubility [1] | Structure (SMILES) | time taken by the concentration of latanoprost to drop to 90% of an initial content (50° C.) [h] | time taken by the concentration of latanoprost to drop to 90% of an initial content (75° C.) [h] |
| --- | --- | --- | --- |
|  | CC(C)OC(=O)CCC/C=C\C[C@@H]1[C@@H](CC[C@@H](O)CCc2ccccc2)[C@H](O)C[C@@H]1O [Latanoprost, latanoprost] | 198 | 32 |
| about 50 mg/mL | CCN[C@H]1C[C@H](C)S(=O)(=O)c2sc(S(N)(=O)=O)cc21.Cl [dorzolamide hydrochloride] |  |  |
